Measured values published in patent EP2064211B1, “IMIDAZO[1,2-A]PYRIDINE HYDROXYMATE COMPOUNDS THAT ARE INHIBITORS OF HISTONE DEACETYLASE” (MEI Pharma, Inc., priority 2006, dated 2008).
Like-named read-outs stand apart in the source and are kept apart here.

Experiments:
HDAC1 enzyme = target: T1, HDAC1 enzyme (Homo sapiens, UniProt Q13547); assay: In vitro HDAC assay for determination of IC50 values (BIOMOL fluorescent-based HDAC activity assay); assay type: biochemical; details: recombinant GST-HDAC1, 500 uM Flur de lys substrate, room temperature 2 h; read-out: IC50 (HDAC 1)
T1 construct: Amplification of human HDAC1 coding region from this cDNA library was cloned separately into the baculovirus expression pDEST20 vector; made in house; host or cells: SF9 insect cells (baculovirus, pDEST20 vector)
T1 sequence (Q13547 whole entry): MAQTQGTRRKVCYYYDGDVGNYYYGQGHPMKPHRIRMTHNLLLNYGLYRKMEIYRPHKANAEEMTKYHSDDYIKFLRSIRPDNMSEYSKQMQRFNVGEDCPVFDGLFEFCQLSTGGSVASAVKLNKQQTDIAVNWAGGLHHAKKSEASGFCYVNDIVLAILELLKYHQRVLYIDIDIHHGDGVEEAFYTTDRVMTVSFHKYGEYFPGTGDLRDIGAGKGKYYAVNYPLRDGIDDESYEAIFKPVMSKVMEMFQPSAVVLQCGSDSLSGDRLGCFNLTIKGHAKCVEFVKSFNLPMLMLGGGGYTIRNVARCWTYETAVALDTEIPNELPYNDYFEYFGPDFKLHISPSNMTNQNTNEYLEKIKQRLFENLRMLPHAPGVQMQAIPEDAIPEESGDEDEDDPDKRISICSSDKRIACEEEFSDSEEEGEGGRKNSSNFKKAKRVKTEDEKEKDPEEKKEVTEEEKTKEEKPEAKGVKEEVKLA
Protocol: Human cDNA library was prepared using cultured SW620 cells. Amplification of human HDAC1 coding region from this cDNA library was cloned separately into the baculovirus expression pDEST20 vector (GATEWAY Cloning Technology, Invitrogen Pte Ltd). The pDEST20-HDAC1 construct was confirmed by DNA sequencing. Recombinant baculovirus was prepared using the Bac-To-Bac method following the manufacturer's instruction (Invitrogen Pte Ltd).
Expression of GST-HDAC1 was done by infecting SF9 cells (Invitrogen Pte Ltd) with pDEST20-HDAC1 baculovirus at MOI=1 for 48 h. Soluble cell lysate was incubated with pre-equilibrated Glutathione Sepharose 4B beads (Amersham) at 4°C for 2 h. The beads were washed with PBS buffer for 3 times. The GST-HDAC1 protein was eluted by elution buffer containing 50 mM Tris, pH8.0, 150mM NaCl, 1% Triton X-100 and 10mM or 20mM reduced Glutathione. The purified GST-HDAC1 protein was dialyzed with HDAC storage buffer containing 10mM Tris, pH7.5, 100mM NaCl and 3mM MgCl2. 20% Glycerol was added to purified GST-HDAC1 protein before storage at -80°C.
The assay has been carried out in 96 well format and the BIOMOL fluorescent-based HDAC activity assay has been applied. The reaction composed of assay buffer, containing 25 mM Tris pH 7.5, 137 mM NaCl, 2.7 mM KCl, 1 mM MgCl2, 1 mg/ml BSA, tested compounds, an appropriate concentration of HDAC1 enzyme, 500 uM Flur de lys generic substrate for HDAC1 enzyme and subsequently was incubated at room temperature for 2 h. Flur de lys Developer was added and the reaction was incubated for 10 min. Briefly, deacetylation of the substrate sensitizes it to the developer, which then generates a fluorophore. The fluorophore is excited with 360 nm light and the emitted light (460 nm) is detected on a fluorometric plate reader (Tecan Ultra Microplate detection system, Tecan Group Ltd.).
The analytical software, Prism 4.0 (GraphPad Software Inc) has been used to generate IC50 from a series of data. IC50 is defined as the concentration of compound required for 50% inhibition of HDAC enzyme activity.

Colo205 cells = assay: Cell-based proliferation assay for determination of GI50 values (CyQUANT); parameters: species or system Human; details: concentration for 50% inhibition of cell growth, read-out: Gl50 (Colo205)
Protocol: Human cancer cell lines (e.g. Colo205) were obtained from ATCC. Colo205 cells were cultivated in RPMI 1640 containing 2 mM L-Glutamine, 5% FBS, 1.0 mM Na Pyruvate. Colo205 cells were seeded in 96-wells plate at 5000 cells per well. The plates were incubated at 37°C, 5% CO2, for 24 h. Cells were treated with compounds at various concentrations for 96 h. Cell growth was then monitored using CyQUANT® cell proliferation assay (Invitrogen Pte Ltd). Dose response curves were plotted to determine Gl50 values for the compounds using XL-fit (ID Business Solution, Emeryville, CA). Gl50 is defined as the concentration of compound required for 50% inhibition of cell growth.

[1] = Homo sapiens, COLO 205, compound treatment 96 h

| Molecule | IC50 (HDAC1 enzyme) [nM] | IC50 (Colo205 cells; [1]) [nM] | IC50 (Colo205 cells; compound treatment 96 h) [nM] |
| --- | --- | --- | --- |
| CCC(CC)CN(C)Cc1c(C(C)(C)C)nc2cc(C=CC(=O)NO)ccn12 [Compound 35, 3-(2-tert-Butyl-3-{[(2-ethyl-butyl)-methyl-amino]-methyl}-imidazo[1,2-a]pyridin-7-yl)-N-hydroxy-acrylamide] | 410 | 2300 | – |
| CCCN(CC)Cc1c(C)nc2cc(C=CC(=O)NO)ccn12 [Compound 30, 3-{3-[(Ethyl-propyl-amino)-methyl]-2-methyl-imidazo[1,2-a]pyridin-7-yl}-N-hydroxy-acrylamide] | 540 | 4600 | – |
| CCCCc1nc2cc(C=CC(=O)NO)ccn2c1CN(CC)CC [Compound 7, 3-(2-Butyl-3-diethylaminomethyl-imidazo[1,2-a]pyridin-7-yl)-N-hydroxy-acrylamide] | 180 | 680 | – |
| CCN(CC)Cc1c(C(C)(C)C)nc2cc(C=CC(=O)NO)ccn12 [Compound 11, 3-(2-tert-Butyl-3-diethylaminomethyl-imidazo[1,2-a]pyridin-7-yl)-N-hydroxy-acrylamide] | 1200 | 4400 | – |
| CCCCc1nc2cc(C=CC(=O)NO)ccn2c1CN(CC)CC(C)(C)C [Compound 43, 3-(2-Butyl-3-{[(2,2-dimethyl-propyl)-ethyl-amino]-methyl}-imidazo[1,2-a]pyridin-7-yl)-N-hydroxy-acrylamide] | 160 | 950 | – |
| CCCCCc1nc2cc(C=CC(=O)NO)ccn2c1CN(CC)CCC(C)C [Compound 55, 3-(3-{(Ethyl-(3-methyl-butyl)-amino]-methyl}-2-pentyl-imidazo[1,2-a]pyridin-7-yl)-N-hydroxy-acrylamide] | 30 | 140 | – |
| CC(C)(C)CNCc1c(C(C)(C)C)nc2cc(C=CC(=O)NO)ccn12 [Compound 1, 3-{2-tert-Butyl-3-[(2,2-dimethyl-propylamino)-methyl]-imidazo[1,2-a]pyridin-7-yl}-N-hydroxy-acrylamide] | 190 | 1500 | – |
| CCCN(CC)Cc1c(C(C)(C)C)nc2cc(C=CC(=O)NO)ccn12 [Compound 13, 3-{2-tert-Butyl-3-[(ethyl-propyl-amino)-methyl]-imidazo[1,2-a]pyridin-7-yl}-N-hydroxy-acrylamide] | 270 | 1800 | – |
| CCC(C)CN(CC)Cc1c(C(C)(C)C)nc2cc(C=CC(=O)NO)ccn12 (centres unmarked) [Compound 19, 3-(2-tert-Butyl-3-{[ethyl-(2-methyl-butyl)-amino]-methyl}-imidazo[1,2-a]pyridin-7-yl)-N-hydroxy-acrylamide] | – | 2200 | – |
| CCCCc1nc2cc(C=CC(=O)NO)ccn2c1CN(C)C [Compound 14, 3-(2-Butyl-3-dimethylaminomethyl-imidazo[1,2-a]pyridin-7-yl)-N-hydroxy-acrylamide] | 40 | 230 | – |
| CCCc1nc2cc(C=CC(=O)NO)ccn2c1CN(CC)CCC(C)(C)C [Compound 52, 3-(3-{[(3,3-Dimethyl-butyl)-ethyl-amino]-methyl}-2-propyl-imidazo[1,2-a]pyridin-7-yl)-N-hydroxy-acrylamide] | 20 | 70 | – |
| CCCCc1nc2cc(C=CC(=O)NO)ccn2c1CN(CC)CCC(C)C [Compound 42, 3-(2-Butyl-3-{[ethyl-(3-methyl-butyl)-amino]-methyl}-imidazo[1,2-a]pyridin-7-yl)-N-hydroxy-acrylamide] | 20 | 90 | – |
| CCCCCc1nc2cc(C=CC(=O)NO)ccn2c1CN(CC)CCC(C)(C)C [Compound 56, 3-(3-{[(3,3-Dimethyl-butyl)-ethyl-amino]-methyl}-2-pentyl-imidazo[1,2-a]pyridin-7-yl)-N-hydroxy-acrylamide] | 30 | 150 | – |
| CCCCc1nc2cc(C=CC(=O)NO)ccn2c1CN(CCC)CCC [Compound 6, 3-(2-Butyl-3-dipropylaminomethyl-imidazo[1,2-a]pyridin-7-yl)-N-hydroxy-acrylamide] | 200 | 610 | – |
| CCN(CCC(C)C)Cc1c(CC(C)C)nc2cc(C=CC(=O)NO)ccn12 [Compound 60, 3-(3-{[Ethyl-(3-methyl-butyl)-amino]-methyl}-2-isobutyl-imidazo[1,2-a]pyridin-7-yl)-N-hydroxy-acrylamide] | – | 150 | – |
| CCc1nc2cc(C=CC(=O)NO)ccn2c1CNC(C)(C)C [Compound 62, 3-[3-(tert-Butylamino-methyl)-2-ethyl-imidazo[1,2-a]pyridin-7-yl]-N-hydroxy-acrylamide] | 30 | 260 | – |
| CCCN(Cc1c(C)nc2cc(C=CC(=O)NO)ccn12)CC(C)(C)C [Compound 38, 3-(3-{[(2,2-Dimethyl-propyl)-propyl-amino]-methyl}-2-methyl-imidazo[1,2-a]pyridin-7-yl)-N-hydroxy-acrylamide] | 130 | 700 | – |
| CCCCc1nc2cc(C=CC(=O)NO)ccn2c1CN(CC)CC(C)CCC (centres unmarked) [Compound 44, 3-(2-Butyl-3-{[ethyl-(2-methyl-pentyl)-amino]-methyl}-imidazo[1,2-a]pyridin-7-yl)-N-hydroxy-acrylamide] | 80 | 490 | – |
| CC(C)Cc1nc2cc(C=CC(=O)NO)ccn2c1CNC(C)(C)C [Compound 58, 3-[3-(tert-Butylamino-methyl)-2-isobutyl-imidazo[1,2-a]pyridin-7-yl]-N-hydroxy-acrylamide] | 50 | 210 | – |
| CCCc1nc2cc(C=CC(=O)NO)ccn2c1CN(CC)CCC(C)C [Compound 51, 3-(3-{[Ethyl-(3-methyl-butyl)-amino]-methyl}-2-propyl-imidazo[1,2-a]pyridin-7-yl)-N-hydroxy-acrylamide] | 30 | 80 | – |
| CCCCc1nc2cc(C=CC(=O)NO)ccn2c1CN(C)CCCC [Compound 8, 3-{2-Butyl-3-[(butyl-methyl-amino)-methyl]-imidazo[1,2-a]pyridin-7-yl}-N-hydroxy-acrylamide] | 70 | 170 | – |
| CCNCc1c(C(C)(C)C)nc2cc(C=CC(=O)NO)ccn12 [Compound 15, 3-(2-tert-Butyl-3-ethylaminomethyl-imidazo[1,2-a]pyridin-7-yl)-N-hydroxy-acrylamide] | 60 | 470 | – |
| CCCCN(CC)Cc1c(C(C)(C)C)nc2cc(C=CC(=O)NO)ccn12 [Compound 16, 3-{2-tert-Butyl-3-[(butyl-ethyl-amino)-methyl]-imidazo[1,2-a]pyridin-7-yl}-N-hydroxy-acrylamide] | 60 | 680 | – |
| CCCCN(C)Cc1c(C(C)(C)C)nc2cc(C=CC(=O)NO)ccn12 [Compound 34, 3-{2-tert-Butyl-3-[(butyl-methyl-amino)-methyl]-imidazo[1,2-a]pyridin-7-yl}-N-hydroxy-acrylamide] | 220 | 1700 | – |
| CN(Cc1c(C(C)(C)C)nc2cc(/C=C/C(=O)NO)ccn12)CC(C)(C)C [Compound 33, 3-(-tert-Butyl-3-{[(2,2-dimethyl-propyl)-methyl-amino]-methyl}-imidazo[1,2-a]pyridin-7-yl)-N-hydroxy-acrylamide] | 780 | 6300 | – |
| CCCCc1nc2cc(C=CC(=O)NO)ccn2c1CN(CC)CCC(C)(C)C [Compound 45, 3-(2-Butyl-3-{[(3,3-dimethyl-butyl)-ethyl-amino]-methyl)-imidazo[1,2-a]pyridin-7-yl)-N-hydroxy-acrylamide] | 30 | 140 | – |
| CCCCc1nc2cc(C=CC(=O)NO)ccn2c1CN(CC)CC(C)C [Compound 40, 3-(2-Butyl-3-[(ethyl-isobutyl-amino)-methyl]-imidazo[1,2-a]pyridin-7-yl}-N-hydroxy-acrylamide] | 90 | 570 | – |
| 3-(2-Butyl-3-{(ethyl-(2-methyl-pentyl)-amino]-methyl}-imidazo[1,2-a]pyridin-7-yl)-N-hydroxy-acrylamide [Compound 41] | – | – | 370 |
